Results on 6 compounds are retold here after paper PMC2671240 (Journal of medicinal chemistry, 2009).

Data set [1] concerns subcutaneous pentylenetetrazole induced seizures. As to conditions: mice IP; cited from earlier work.
Data set [2] shares this test system. The settings on record: rat PO; cited from earlier work.
The subject of data set [3] is minimal muscular or neurological impairment (gait). The data set can be described thus: TOX, abnormal uncoordinated gait, rat PO. Format: in vivo.
Another data set relates to kindled motor seizure. The data set can be described thus: Preliminary hippocampal kindling screen, rats IP. In kind it is in vivo.
For data set [4], the system named is subcutaneous pentylenetetrazole induced seizures. Description: Subcutaneous metrazole seizure. The settings on record: rat IP, 50 mg/kg. In kind it is in vivo.
For data set [5], the system named is maximal electroshock induced seizures. Description: Maximal electroshock seizure. The settings on record: mice IP, 100mg/kg. Format: in vivo. A general note: In the maximal electroshock model the usual endpoint is tonic extension of the hind limbs.
For data set [6] the following is noted: chronic dosing (5 days), data from NINDS; cited from earlier work.
For data set [7], the system named is maximal electroshock induced seizures. Description: Maximal electroshock seizure. As to conditions: rat PO, 30 mg/kg. In kind it is in vivo.
Another data set has as its target α1β3γ2 GABAA receptors (Homo sapiens, UniProt P14867+P18507). The data set can be described thus: Stimulation of GABA-induced currents in oocytes expressing GABAA receptors. The settings on record: concentration not given.
Data set [8] concerns subcutaneous pentylenetetrazole induced seizures. The data set can be described thus: Subcutaneous metrazole seizure. In kind it is in vivo, mice. As to conditions: 100mg/kg; for scMET, number protected/number tested: mice IP.
The test system of data set [9] is minimal muscular or neurological impairment (gait). The data set can be described thus: TOX, abnormal uncoordinated gait, rat IP. Format: in vivo.
Data set [10] concerns subcutaneous pentylenetetrazole induced seizures. The data set can be described thus: Subcutaneous metrazole seizure. Format: in vivo, rat. The settings on record: for scMET, number protected/number tested: rat PO.
Data set [11] has as its system minimal muscular or neurological impairment (rotorod). The data set can be described thus: TOX, motor impairment by rotorod paradigm, mice IP. Format: in vivo. The settings on record: 100mg/kg. For orientation: The rotarod test checks motor coordination on a turning rod.
The subject of a further data set is seizures. Description: Antiseizure activity in mice dosed ip. Format: in vivo. The settings on record: data not shown.
Setting [12] is: rats IP, 30mg/kg, after 1h of dosing (kindling screen table).

SMILES strings stand for the structures. “And” between values parts separate entries of the source, which are not always exact repeats. Equal values may be shown once. Read-outs that look alike come from different tables or passages of the source. Marks after values point to notes of the source that are not given here.

Sequence of α1β3γ2 GABAA receptors (P14867 28-456): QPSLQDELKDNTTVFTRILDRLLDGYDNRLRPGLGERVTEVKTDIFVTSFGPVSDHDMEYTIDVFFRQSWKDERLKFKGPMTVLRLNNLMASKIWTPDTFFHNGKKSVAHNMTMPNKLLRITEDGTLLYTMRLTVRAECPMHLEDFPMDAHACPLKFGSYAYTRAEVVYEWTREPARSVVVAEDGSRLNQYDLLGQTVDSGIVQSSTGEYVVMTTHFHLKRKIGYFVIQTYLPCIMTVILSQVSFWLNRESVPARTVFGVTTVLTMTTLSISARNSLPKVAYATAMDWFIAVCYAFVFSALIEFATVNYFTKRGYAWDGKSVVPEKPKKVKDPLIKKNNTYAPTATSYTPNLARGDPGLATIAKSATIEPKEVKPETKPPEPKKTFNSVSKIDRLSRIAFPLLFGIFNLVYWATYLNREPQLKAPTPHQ
Sequence of α1β3γ2 GABAA receptors (P28472 26-473 partner): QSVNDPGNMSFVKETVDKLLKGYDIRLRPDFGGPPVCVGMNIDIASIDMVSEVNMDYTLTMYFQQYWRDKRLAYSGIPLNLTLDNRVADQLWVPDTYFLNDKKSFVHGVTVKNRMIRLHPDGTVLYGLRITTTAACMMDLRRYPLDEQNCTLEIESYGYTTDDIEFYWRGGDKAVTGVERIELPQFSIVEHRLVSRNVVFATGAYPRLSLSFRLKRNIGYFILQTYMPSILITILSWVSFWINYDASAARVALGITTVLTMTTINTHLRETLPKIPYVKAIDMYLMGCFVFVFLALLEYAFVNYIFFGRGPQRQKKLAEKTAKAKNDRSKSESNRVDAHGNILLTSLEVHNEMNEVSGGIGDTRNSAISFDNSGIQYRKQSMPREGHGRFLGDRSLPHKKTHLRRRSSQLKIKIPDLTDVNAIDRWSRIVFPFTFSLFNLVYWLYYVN
Sequence of α1β3γ2 GABAA receptors (P18507 40-475): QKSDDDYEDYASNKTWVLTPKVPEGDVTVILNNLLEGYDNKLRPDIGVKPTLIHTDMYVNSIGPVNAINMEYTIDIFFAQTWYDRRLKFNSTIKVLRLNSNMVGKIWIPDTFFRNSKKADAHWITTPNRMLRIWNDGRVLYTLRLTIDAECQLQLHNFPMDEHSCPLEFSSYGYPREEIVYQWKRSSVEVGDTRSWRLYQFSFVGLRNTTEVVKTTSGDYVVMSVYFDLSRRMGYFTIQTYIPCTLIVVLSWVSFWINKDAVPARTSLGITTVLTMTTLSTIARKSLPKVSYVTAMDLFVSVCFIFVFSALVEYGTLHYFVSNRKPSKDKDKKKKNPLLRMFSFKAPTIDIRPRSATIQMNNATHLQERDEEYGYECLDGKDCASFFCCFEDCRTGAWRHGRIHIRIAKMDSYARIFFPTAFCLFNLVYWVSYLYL

Regarding `NC(=O)N1c2ccccc2C=Cc2ccccc21` [Carbamazepine], in [1], the “ED50 scMET” value is recorded as >50 mg/kg.
Turning to `O=C1NC(=O)C(c2ccccc2)(c2ccccc2)N1` [Phenytoin], the “ED50 scMET” value is reported as >500 mg/kg in [2] and >50 mg/kg in data set [1].
For `C#Cc1ccc2c(c1)C(c1ccccn1)=NCc1c(C(=O)OCC)ncn1-2` [compound 2], the “TOX, number toxic/number tested” value in [3] (0.5 h) was 0/4; in [3] (4.0 h) it was 0/4; in data set [9] (rat IP, 0.5 h), 0/8; in data set [9] (rat IP, after 1 h of dosing (footnote d, row 4.0 h)), 0/8 ^d; in [9] (setting [12]) it was 0/2 ^e; in data set [11] (0.5 h), “no motor impairment and 0/8”. Besides, the “TOX, number toxic/number tested” value in [11] (4.0 h) was 0/4. Moreover, the “Seizure Score, Drug L - H” value in the data set with kindled motor seizure (100mg/kg, pre-drug 4 5) is on record as 3. The “scMET, number protected/number tested” value in data set [4] (0.5 h) was 7/8; in data set [8] (0.5 h), 3/5; in [8] (4.0 h) it was “absent and 0/1”; in data set [10] (50 mg/kg, 0.5 h) it was 4/4; in [10] (50 mg/kg, 4.0 h) it was 0/4. Further, the “MES, number protected/number tested” value was 0/3 in [5] (0.5 h), 0/3 in data set [5] (4.0 h), 1/4 in data set [7] (0.5 h) and 0/4 in data set [7] (4.0 h). The “tolerance to the anticonvulsant effects” value in data set [6] is “did not develop”. Also, on α1β3γ2 GABAA receptors, the “efficacy at α1” value is 233%. The “mice with raised scMET seizure threshold” value in data set [8] (mice ip, 0.5 h) was found to be 60%. For the same compound, the “protection (scMET)” value in data set [10] (rats, po dosing, after four hours) is recorded as “no protection”.
For the compound `C#Cc1ccc2c(c1)C(c1ccccc1F)=NCc1c(C(=O)OCC)ncn1-2` [compound 3], the “TOX, number toxic/number tested” value in [3] (0.5 h) was 0/4; in data set [3] (4.0 h), 0/4; in data set [9] (rat IP, 0.5 h), 0/4; in [9] (rat IP, 4.0 h) it was 0/4; in data set [9] (setting [12]), 0/2 ^e. For the same compound, the “Seizure Score, Drug L - H” value in the data set with kindled motor seizure (50mg/kg, pre-drug 5) is 3. In addition, the “scMET, number protected/number tested” value in [4] (0.5 h) was 3/4; in data set [4] (4.0 h), 3/4; in [10] (50 mg/kg, 0.5 h), 3/4; in [10] (50 mg/kg, 4.0 h) it was 4/4. The “MES, number protected/number tested” value in [7] (0.5 h) is given as 0/4; in [7] (4.0 h) it was 1/4. The “efficacy at α1” value at α1β3γ2 GABAA receptors amounted to 282%.
`C#Cc1ccc2c(c1)C(c1ccccc1Cl)=NCc1nnc(C)n1-2` [compound 4]: the “TOX, number toxic/number tested” value in data set [3] (0.5 h) is given as 0/4; in data set [3] (4.0 h), 0/4; in data set [9] (rats IP, 3mg/kg, after 1h of dosing (kindling screen table)), 0/2 ^f. For the same compound, the “Seizure Score, Drug L - H” value with kindled motor seizure (10mg/kg, pre-drug 5) is given as 3. Moreover, the “MES, number protected/number tested” value in [7] (0.5 h) and in [7] (4.0 h) was 0/4 in each case. Further, the “scMET, number protected/number tested” value in data set [10] (15 mg/kg, 0.5 h) is 3/4; in [10] (15 mg/kg, 4.0 h), 2/4; in data set [10] (50 mg/kg, 0.5 h), 4/4; in data set [10] (50 mg/kg, 4.0 h), 3/4.
Turning to `CCOC(=O)c1ncn2c1CN=C(c1ccccc1F)c1cc(I)ccc1-2` [compound 5], the “TOX, number toxic/number tested” value in data set [3] (0.5 h) was 0/6; in data set [3] (after 1 h of dosing (footnote d, row 4.0 h)), “no observed TOX and 0/6 ^d”; in data set [9] (rat IP, 0.5 h) it was 0/4; in data set [9] (rat IP, 4.0 h), 0/4. Further, the “scMET, number protected/number tested” value in data set [4] (0.5 h) was 1/4; in [4] (4.0 h), 2/4; in [10] (50 mg/kg, 0.5 h) it was 2/6; in data set [10] (50 mg/kg, after 1 h of dosing (footnote d, row 4.0 h), 50 mg/kg), 5/6 and 5/6 ^d. Further, the “activity in mice dosed ip” value with seizures is given as “no activity”.
